# pIC50: −log10 of the molar value.
# Target: T1, Human HIF-PHD2 (Homo sapiens, UniProt Q9GZT9)
# T1 construct: FLAG-tagged full length PHD2 expressed in and purified from baculovirus-infected Sf9 cells; FLAG; made in house; host or cells: baculovirus-infected Sf9 cells
# Test: Inhibition of the hydroxylation of a HIF peptide by PHD2 (time resolved fluorescence, 384-well)
# Assay type: biochemical
# Settings: FLAG-tagged full length PHD2; 0.2 μM 2-oxoglutarate, 0.5 μM HIF-1α peptide; 45 minutes at room temperature; read-out: Human HIF-PHD2 IC50
# T1 sequence (Q9GZT9 whole entry): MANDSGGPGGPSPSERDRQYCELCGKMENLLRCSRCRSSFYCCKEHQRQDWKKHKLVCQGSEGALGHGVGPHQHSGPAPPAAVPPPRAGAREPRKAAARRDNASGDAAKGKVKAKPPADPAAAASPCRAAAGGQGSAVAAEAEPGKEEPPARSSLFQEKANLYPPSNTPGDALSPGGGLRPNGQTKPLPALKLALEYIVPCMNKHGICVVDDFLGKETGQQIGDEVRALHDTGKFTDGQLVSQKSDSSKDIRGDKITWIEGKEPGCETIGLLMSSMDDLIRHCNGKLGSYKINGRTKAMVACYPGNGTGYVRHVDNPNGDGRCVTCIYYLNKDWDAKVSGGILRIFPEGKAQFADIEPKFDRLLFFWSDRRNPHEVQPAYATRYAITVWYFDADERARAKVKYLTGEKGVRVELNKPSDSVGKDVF
row,pIC50,SMILES
1,7.82,"CS(=O)(=O)c1ccc(C2COc3cccc4c(O)c(C(=O)NCC(=O)O)c(=O)n2c34)cc1 (stereo not drawn) [Example 183, Ammonium 2-(7-hydroxy-3-(4-(methylsulfonyl)phenyl)-5-oxo-3,5-dihydro-2H-[1,4]oxazino[2,3,4-ij]quinoline-6-carboxamido)acetate]"
2,7.92,"O=C(O)CNC(=O)c1c(O)c2cc(-c3ccn[nH]3)cc3c2n(c1=O)C(c1ccc(C(F)(F)F)cc1)CO3 (stereo not drawn) [Example 185, 2-(7-Hydroxy-5-oxo-9-(1H-pyrazol-5-yl)-3-(4-(trifluoromethyl)phenyl)-3,5-dihydro-2H-[1,4]oxazino[2,3,4-ij]quinoline-6-carboxamido)acetic acid]"

# Same assay, conditions: FLAG-tagged full length PHD2; 0.2 μM 2-oxoglutarate, 0.5 μM HIF-1α peptide; 45 minutes at room temperature; read-out: MS m/z (M + 1)+ and human HIF-PHD2 IC50
row,pIC50,SMILES
1,8.54,"N#Cc1ccc2c3c1c(O)c(C(=O)NCC(=O)O)c(=O)n3C(c1ccc(C(F)(F)F)cc1)CO2 (stereo not drawn) [Example 180, ammonium 2-(8-cyano-7-hydroxy-5-oxo-3-(4-(trifluoromethyl)phenyl)-3,5-dihydro-2H-[1,4]oxazino[2,3,4-ij]quinoline-6-carboxamido)acetate]"
2,8.00,"N#Cc1ccc(C2COc3cccc4c(O)c(C(=O)NCC(=O)O)c(=O)n2c34)cc1 (stereo not drawn) [Example 181, ammonium 2-(3-(4-cyanophenyl)-7-hydroxy-5-oxo-3,5-dihydro-2H-[1,4]oxazino[2,3,4-ij]quinoline-6-carboxamido)acetate]"
3,8.85,"N#Cc1ccc2c(O)c(C(=O)NCC(=O)O)c(=O)n3c2c1OCC3c1cncs1 (stereo not drawn) [Example 182, ammonium 2-(10-cyano-7-hydroxy-5-oxo-3-(thiazol-5-yl)-3,5-dihydro-2H-[1,4]oxazino[2,3,4-ij]quinoline-6-carboxamido)acetate]"
4,7.72,"CS(=O)(=O)c1cc2c3c(c1)c(O)c(C(=O)NCC(=O)O)c(=O)n3C(c1ccc(C(F)(F)F)cc1)CO2 (stereo not drawn) [Example 184, ammonium 2-(7-hydroxy-9-(methylsulfonyl)-5-oxo-3-(4-(trifluoromethyl)phenyl)-3,5-dihydro-2H-[1,4]oxazino[2,3,4-ij]quinoline-6-carboxamido)acetate]"
